Assays:
SKOV3 cells = experiment: GI50 determinations in SKOV3 cells; assay type: cell-based; details: Homo sapiens, SK-OV-3
SKOV-3 tumors = experiment: Tumor growth inhibition in vivo; details: nude mice, subcutaneous SKOV-3 tumors; GDC-941 orally, II-a-3 I.P., 50-100 mg/Kg/QD, 21 days
Description: Tumor Growth Inhibition In Vivo
The in vivo experiment was performed at Piedmont Research Center (Research Triangle Park, N.C.). Nude mice were implanted with SKOV-3 tumors subcutaneously. […] Dosing continued for 21 days. Tumor volume was measured twice a week.

PI3Kα = PI3Kα (Homo sapiens, UniProt P42336); experiment: Mass spectrometry of intact PI3Kα (Johns Hopkins), 3 hr incubation; assay type: binding; parameters: Johns Hopkins; details: 10× fold excess of compound, MALDI
Sequence of PI3Kα (P42336 whole entry): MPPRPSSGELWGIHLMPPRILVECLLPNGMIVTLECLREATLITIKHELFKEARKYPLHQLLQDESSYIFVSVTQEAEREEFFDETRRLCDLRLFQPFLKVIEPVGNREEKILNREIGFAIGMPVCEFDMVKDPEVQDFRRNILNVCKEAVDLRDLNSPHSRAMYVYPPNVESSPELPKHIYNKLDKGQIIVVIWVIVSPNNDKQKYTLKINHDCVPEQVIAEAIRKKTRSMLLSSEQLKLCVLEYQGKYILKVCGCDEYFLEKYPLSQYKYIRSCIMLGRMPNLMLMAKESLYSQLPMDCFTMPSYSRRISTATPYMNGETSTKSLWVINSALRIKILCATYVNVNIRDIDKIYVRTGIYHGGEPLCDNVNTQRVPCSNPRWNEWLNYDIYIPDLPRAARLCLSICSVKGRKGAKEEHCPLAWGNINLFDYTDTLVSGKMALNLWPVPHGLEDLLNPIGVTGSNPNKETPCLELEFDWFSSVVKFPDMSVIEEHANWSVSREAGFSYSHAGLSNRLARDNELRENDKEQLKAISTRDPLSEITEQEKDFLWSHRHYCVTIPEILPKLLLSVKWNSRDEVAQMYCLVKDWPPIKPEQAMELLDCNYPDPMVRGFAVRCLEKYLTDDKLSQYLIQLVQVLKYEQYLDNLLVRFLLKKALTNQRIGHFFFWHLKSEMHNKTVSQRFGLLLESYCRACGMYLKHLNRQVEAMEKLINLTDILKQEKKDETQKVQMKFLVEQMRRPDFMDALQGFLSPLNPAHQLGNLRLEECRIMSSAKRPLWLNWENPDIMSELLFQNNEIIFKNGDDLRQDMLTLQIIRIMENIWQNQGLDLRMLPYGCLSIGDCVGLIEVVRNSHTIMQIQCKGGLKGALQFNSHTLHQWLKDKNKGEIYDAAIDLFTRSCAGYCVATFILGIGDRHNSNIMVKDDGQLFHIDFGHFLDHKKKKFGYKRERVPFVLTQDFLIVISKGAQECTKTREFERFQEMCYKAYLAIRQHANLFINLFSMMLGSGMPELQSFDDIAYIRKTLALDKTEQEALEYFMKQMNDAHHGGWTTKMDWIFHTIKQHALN
Sequence of PI3Kα (P27986 322-600 partner limits assumed): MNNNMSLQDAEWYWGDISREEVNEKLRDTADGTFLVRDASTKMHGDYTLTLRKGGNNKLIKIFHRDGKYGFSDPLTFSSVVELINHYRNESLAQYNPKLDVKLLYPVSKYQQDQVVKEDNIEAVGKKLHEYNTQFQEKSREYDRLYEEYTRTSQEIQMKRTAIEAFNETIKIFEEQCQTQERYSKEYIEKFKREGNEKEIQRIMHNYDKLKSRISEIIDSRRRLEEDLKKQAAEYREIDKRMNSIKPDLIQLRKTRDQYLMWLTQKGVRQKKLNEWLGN
Description: Mass Spectrometry for PI3K
Intact PI3Kα (Johns Hopkins) was incubated for 3 hr at a 10× fold excess of II-a-45 or II-a-49 to protein. Aliquots (3 μL) of the samples were diluted with 10 μL of 0.1% TFA prior to micro C4 ZipTipping directly onto the MALDI target using Sinapinic acid as the desorption matrix (10 mg/ml in 0.1% TFA:Acetonitrile 50:50).

Structure (SMILES)	GI50 (SKOV3 cells; SKOV3 cells, 96 hours, Cell Titer Glo) [µM]	GI50 (SKOV3 cells; Table 19, assay not given, classes agree with Table 26) [µM]	tumor growth (SKOV-3 tumors)	covalent modification of PI3Kα (PI3Kα)
CC(C)=CC(=O)CCC(=O)N1CCN(Cc2cc3nc(-c4cccc5[nH]ncc45)nc(N4CCOCC4)c3s2)CC1 [II-a-3, 1-(4-((2-(1H-indazol-4-yl)-4-morpholinothieno[3,2-d]pyrimidin-6-yl)methyl)piperazin-1-yl)-6-methylhept-5-ene-1,4-dione]	0.01 to 0.1	0.01 to 0.1	Inhibition of tumor growth	
C/C=C/C(=O)CCC(=O)N1CCN(Cc2cc3nc(-c4cccc5[nH]ncc45)nc(N4CCOCC4)c3s2)CC1 [II-a-36, (E)-1-(4-((2-(1H-indazol-4-yl)-4-morpholinothieno[3,2-d]pyrimidin-6-yl)methyl)piperazin-1-yl)hept-5-ene-1,4-dione]				completely modify

Source: patent publication US20110230476A1, “PI3 KINASE INHIBITORS AND USES THEREOF” (AVILA THERAPEUTICS, INC., priority 2009, published 2011)
